In the supplement of paper PMC10307832:

How the values were obtained:
Assay in all cases: relative viability (nuclei count vs DMSO), 5 days (fraction); higher = more cells survive
[1] = system: NCI-H727
How it was run: (§1)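 Nuclei were stained with Hoechst during a one-step fixation (final 0.05% Triton X-100, 1% formaldehyde, 1 ug/ml Hoechst) carried out 5 days after dosing, then counted on 4× images. The cells, lung cancer lines in 1536-well plates, had been dosed by pin tool the day after seeding with one drug alone or a fixed anchor-drug dose plus five library-drug doses (not always all listed) in √10 steps. Relative viability is the nuclei count in treated wells divided by that in vehicle wells, and each value is the median of duplicate plates.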

[2] = system: NCI-H23
How it was run: as §1

[3] = system: NCI-H1437
How it was run: as §1

[4] = system: NCI-H1975
How it was run: as §1

[5] = system: NCI-H1915
How it was run: as §1

[6] = system: A-427
How it was run: as §1

[7] = system: COR-L 105
How it was run: as §1

[8] = system: NCI-H1792
How it was run: as §1

[9] = system: NCI-H460
How it was run: as §1

[10] = system: NCI-H2228
How it was run: as §1

[11] = system: HARA
How it was run: as §1

[12] = system: LCLC-103H
How it was run: as §1

[13] = system: EMC-BAC-2
How it was run: as §1

[14] = system: NCI-H1355
How it was run: as §1

[15] = system: CAL-12T
How it was run: as §1

[16] = system: NCI-H1755
How it was run: as §1

[17] = system: HCC-366
How it was run: as §1

[18] = system: NCI-H1395
How it was run: as §1

[19] = system: SW 1573
How it was run: as §1

[20] = system: HCC-827
How it was run: as §1

[21] = system: SK-LU-1
How it was run: as §1

[22] = system: NCI-H2009
How it was run: as §1

[23] = system: HOP-62
How it was run: as §1

Q: Which results are given for `O=C(O)c1ccc(-c2c[nH]c3ncc(-c4ccccc4)cc23)cc1C1CCCC1` + N=C(N)NC(=N)NCCc1ccccc1 [Phenformin] (partner 250 µM)?
A: relative viability ([1]; first compound 0.04 µM): 0.464; relative viability ([1]; first compound 0.1265 µM): 0.684; relative viability ([1]; first compound 0.4 µM): 0.582; relative viability ([1]; first compound 1.265 µM): 0.509; relative viability ([2]; first compound 0.04 µM): 0.776; relative viability ([2]; first compound 0.1265 µM): 0.902; relative viability ([2]; first compound 0.4 µM): 0.814; relative viability ([2]; first compound 1.265 µM): 0.613; relative viability ([3]; first compound 0.04 µM): 0.295; relative viability ([3]; first compound 0.1265 µM): 0.298; relative viability ([3]; first compound 0.4 µM): 0.319; relative viability ([3]; first compound 1.265 µM): 0.202; relative viability ([4]; first compound 0.04 µM): 0.41; relative viability ([4]; first compound 0.1265 µM): 0.423; relative viability ([4]; first compound 0.4 µM): 0.388; relative viability ([4]; first compound 1.265 µM): 0.298; relative viability ([5]; first compound 0.04 µM): 0.376; relative viability ([5]; first compound 0.1265 µM): 0.362; relative viability ([5]; first compound 0.4 µM): 0.34; relative viability ([5]; first compound 1.265 µM): 0.295; relative viability ([6]; first compound 0.04 µM): 0.317; relative viability ([6]; first compound 0.1265 µM): 0.446; relative viability ([6]; first compound 0.4 µM): 0.304; relative viability ([6]; first compound 1.265 µM): 0.264; relative viability ([7]; first compound 0.04 µM): 0.485; relative viability ([7]; first compound 0.1265 µM): 0.492; relative viability ([7]; first compound 0.4 µM): 0.489; relative viability ([7]; first compound 1.265 µM): 0.446; relative viability ([8]; first compound 0.1265 µM): 0.475; relative viability ([8]; first compound 0.4 µM): 0.353; relative viability ([8]; first compound 1.265 µM): 0.413; relative viability ([9]; first compound 0.04 µM): 0.536; relative viability ([9]; first compound 0.1265 µM): 0.526; relative viability ([9]; first compound 0.4 µM): 0.507; relative viability ([9]; first compound 1.265 µM): 0.46; relative viability ([10]; first compound 0.04 µM): 0.37; relative viability ([10]; first compound 0.1265 µM): 0.344; relative viability ([10]; first compound 0.4 µM): 0.349; relative viability ([10]; first compound 1.265 µM): 0.245; relative viability ([11]; first compound 0.04 µM): 0.469; relative viability ([11]; first compound 0.1265 µM): 0.479; relative viability ([11]; first compound 0.4 µM): 0.459; relative viability ([11]; first compound 1.265 µM): 0.372; relative viability ([12]; first compound 0.04 µM): 0.369; relative viability ([12]; first compound 0.1265 µM): 0.34; relative viability ([12]; first compound 0.4 µM): 0.389; relative viability ([12]; first compound 1.265 µM): 0.371; relative viability ([13]; first compound 0.04 µM): 0.513; relative viability ([13]; first compound 0.1265 µM): 0.554; relative viability ([13]; first compound 0.4 µM): 0.527; relative viability ([13]; first compound 1.265 µM): 0.424; relative viability ([14]; first compound 0.04 µM): 0.446; relative viability ([14]; first compound 0.1265 µM): 0.462; relative viability ([14]; first compound 0.4 µM): 0.453; relative viability ([14]; first compound 1.265 µM): 0.276; relative viability ([15]; first compound 0.04 µM): 0.549; relative viability ([15]; first compound 0.1265 µM): 0.629; relative viability ([15]; first compound 0.4 µM): 0.579; relative viability ([15]; first compound 1.265 µM): 0.337; relative viability ([16]; first compound 0.04 µM): 0.597; relative viability ([16]; first compound 0.1265 µM): 0.615; relative viability ([16]; first compound 0.4 µM): 0.64; relative viability ([16]; first compound 1.265 µM): 0.604; relative viability ([17]; first compound 0.04 µM): 0.686; relative viability ([17]; first compound 0.1265 µM): 0.631; relative viability ([17]; first compound 0.4 µM): 0.607; relative viability ([17]; first compound 1.265 µM): 0.611; relative viability ([18]; first compound 0.04 µM): 0.452; relative viability ([18]; first compound 0.1265 µM): 0.44; relative viability ([18]; first compound 0.4 µM): 0.413; relative viability ([18]; first compound 1.265 µM): 0.414; relative viability ([19]; first compound 0.04 µM): 0.38; relative viability ([19]; first compound 0.1265 µM): 0.35; relative viability ([19]; first compound 0.4 µM): 0.276; relative viability ([19]; first compound 1.265 µM): 0.299; relative viability ([20]; first compound 0.04 µM): 0.406; relative viability ([20]; first compound 0.1265 µM): 0.397; relative viability ([20]; first compound 0.4 µM): 0.43; relative viability ([20]; first compound 1.265 µM): 0.386; relative viability ([21]; first compound 0.04 µM): 0.537; relative viability ([21]; first compound 0.1265 µM): 0.585; relative viability ([21]; first compound 0.4 µM): 0.459; relative viability ([21]; first compound 1.265 µM): 0.363; relative viability ([22]; first compound 0.04 µM): 0.519; relative viability ([22]; first compound 0.1265 µM): 0.533; relative viability ([22]; first compound 0.4 µM): 0.512; relative viability ([22]; first compound 1.265 µM): 0.393; relative viability ([23]; first compound 0.04 µM): 0.699; relative viability ([23]; first compound 0.1265 µM): 0.669; relative viability ([23]; first compound 0.4 µM): 0.611; relative viability ([23]; first compound 1.265 µM): 0.595
